Counter-ions that a name gives are not always drawn.
Tests used:
RORγt = RORγt (Homo sapiens (Human), UniProt P51449); test: Gal4 ligand binding assay (RORγt Gal fusion assay); assay type: cell-based; conditions: RORγt inverse agonists in RORγt Gal fusion assay
Experimental: Human RORγ ligand binding assay was performed in 96-well format. The N-terminal DNA binding domains (DBD) of the native RORγ and RORγt receptors have been substituted with that of the yeast GAL4-DBD and RORγ is expressed constitutively in the cell line. Both agonist and inverse agonist activity can be detected. 10 mM compound stocks were diluted serially 1:3 with DMSO and further diluted with provided media to generate 10 titration points from 60 μM to 3 nM. These treatment conditions were added to the plates as 2× media in 100 μL volume. Each plate includes a positive control with 10 titration points as well as 6 negative control wells with vehicle only. Reporter cells were rapidly thawed and added to the plates in 100 μL volume. The plates were incubated for 24 hrs in a 37° C. humidified 5% CO2 incubator. Media was removed before the addition of room temperature Detection Substrate. After 5 minute incubation, the luminescence was quantified on a luminescence plate reader.

IMQ-induced psoriasis = conditions: topical pre-treatment daily for 5 days, 4 hours before IMQ; Compound A at 0.3, 1, 3%
Experimental: Compounds of Formula (I), (Ia), or (Ib) were tested in the imiquimod (IMQ) induced psoriasis model in mice to determine their in vivo efficacy as topical agents. Female Balb/c mice of age 8-10 weeks were allowed to acclimatize for at least seven days prior to experiment initiation. During this period, the mice were observed daily for clinical signs. Animals were randomly assigned to studies group on Day zero (DO) before anaesthetization and back hair was completely removed by using a depilatory cream. One group of animals served as a naïve control (untreated). […] The severity of psoriasis was monitored and graded daily using a modified human scoring system, the Psoriasis Area and Severity Index (PASI), which consists of measures for ear and skin erythema, scaling and thickness. At the end of the study period, 24 hours after the final dosing, all animals were humanely sacrificed, and blind histopathological scoring was performed by pathologist on H&E stained tissue sections of the ear and back.

Sequence of RORγt (P51449 269-508): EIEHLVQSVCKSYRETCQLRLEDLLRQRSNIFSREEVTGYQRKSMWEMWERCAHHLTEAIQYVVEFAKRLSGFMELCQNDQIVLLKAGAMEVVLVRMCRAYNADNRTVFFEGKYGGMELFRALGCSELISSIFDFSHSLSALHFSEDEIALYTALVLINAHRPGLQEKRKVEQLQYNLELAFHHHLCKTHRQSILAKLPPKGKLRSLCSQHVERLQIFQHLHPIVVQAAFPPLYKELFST

IC50 (RORγt) [µM]	SMILES	further results
1 to 10	O=C(O)C1CN(Cc2ccncc2)CCN1Cc1ccc(-c2ccc(C(O)(C(F)(F)F)C(F)(F)F)cc2)cc1 (centres unmarked) [Compound 12, 1-((4′-(1,1,1,3,3,3-hexafluoro-2-hydroxypropan-2-yl)-[1,1′-biphenyl]-4-yl)methyl)-4-(pyridin-4-ylmethyl)piperazine-2-carboxylic acid]	
1 to 10	Cc1cc(CN2CCN(Cc3ccncc3)[C@@H](CC(=O)O)C2)ccc1-c1ccc(C(O)(C(F)(F)F)C(F)(F)F)cc1 [Compound 50, (S)-2-(4-((4′-(1,1,1,3,3,3-hexafluoro-2-hydroxypropan-2-yl)-2-methyl-[1,1′-biphenyl]-4-yl)methyl)-1-(pyridin-4-ylmethyl)piperazin-2-yl)acetic acid]	
	C[C@H]1C[C@H]2[C@@H]3CCC4=CC(=O)C=C[C@]4(C)[C@@]3(F)[C@@H](O)C[C@]2(C)[C@@]1(O)C(=O)CCl [clobetasol]	ear and back skin thickness (IMQ-induced psoriasis): significantly decreased; histopathology scoring (IMQ-induced psoriasis): significantly decreased; psoriasis score (IMQ-induced psoriasis): significantly decreased
1 to 10	CC(C)NC(=O)C1CN(Cc2ccc(-c3ccc(C(O)(C(F)(F)F)C(F)(F)F)cc3)cc2)CCN1Cc1ccncc1 (centres unmarked) [Compound 28, 4-((4′-(1,1,1,3,3,3-hexafluoro-2-hydroxypropan-2-yl)-[1,1′-biphenyl]-4-yl)methyl)-N-isopropyl-1-(pyridin-4-ylmethyl)piperazine-2-car oxamide]	
1 to 10	NCCOC(=O)CC1CN(Cc2ccc(-c3ccc(C(O)(C(F)(F)F)C(F)(F)F)cc3)cc2)CCN1Cc1ccncc1 (centres unmarked) [Compound 33, 2-aminoethyl 2-(4-((4′-(1,1,1,3,3,3-hexafluoro-2-hydroxypropan-2-yl)-[1,1′-biphenyl]-4-yl)methyl)-1-(pyridin-4-ylmethyl)piperazin-2-yl)acetate hydrochloride]	

SMILES	IC50 (RORγt) [µM]	further results
O=C(O)CC1CN(Cc2ccncc2)CCN1Cc1ccc(-c2ccc(C(O)(C(F)(F)F)C(F)(F)F)cc2)cc1 (centres unmarked) [Compound 13, 2-(1-((4′-(1,1,1,3,3,3-hexafluoro-2-hydroxypropan-2-yl)-[1,1′-biphenyl]-4-yl)methyl)-4-(pyridin-4-ylmethyl)piperazin-2-yl)acetic acid]	1 to 10	

Source: patent US10905687B2, “Substituted piperazines as ROR-gamma modulators” (ESCALIER BIOSCIENCES B.V., priority 2016, dated 2021)
